Results as given in publication PMC12528653, “Functional characterization of key enzymes involved in the biosynthesis of distinctive flavonoids and stilbenoids in Morus notabilis” (Horticulture Research, 2025).

Legend:
Experiment in all cases: HPLC product assay, relative activity vs wild type
Type in all cases: biochemical
MnFLS [1] = target: T1, MnFLS (Morus notabilis, UniProt W9RQ78, K202V); conditions: 100 μM substrate; 2-oxoglutarate, ascorbate, FeSO4; Tris-HCl pH 7.0, 30°C, 1 h
T1 construct: gene L484_013110; full-length ORF (1008 bp, 335 aa) in pET32a, E. coli BL21(DE3), purified recombinant

MnFLS [2] = target: T2, MnFLS (Morus notabilis, UniProt W9RQ78, T117I); conditions: 100 μM substrate; 2-oxoglutarate, ascorbate, FeSO4; Tris-HCl pH 7.0, 30°C, 1 h
T2 construct: gene L484_013110; full-length ORF (1008 bp, 335 aa) in pET32a, E. coli BL21(DE3), purified recombinant

MnFLS [3] = target: T3, MnFLS (Morus notabilis, UniProt W9RQ78, L224M); conditions: 100 μM substrate; 2-oxoglutarate, ascorbate, FeSO4; Tris-HCl pH 7.0, 30°C, 1 h; wild-type residue also printed as Met224
T3 construct: gene L484_013110; full-length ORF (1008 bp, 335 aa) in pET32a, E. coli BL21(DE3), purified recombinant

MnFLS [4] = target: T4, MnFLS (Morus notabilis, UniProt W9RQ78, T117S); conditions: 100 μM substrate; 2-oxoglutarate, ascorbate, FeSO4; Tris-HCl pH 7.0, 30°C, 1 h
T4 construct: gene L484_013110; full-length ORF (1008 bp, 335 aa) in pET32a, E. coli BL21(DE3), purified recombinant
T4 sequence (W9RQ78 entry or part of it T117S): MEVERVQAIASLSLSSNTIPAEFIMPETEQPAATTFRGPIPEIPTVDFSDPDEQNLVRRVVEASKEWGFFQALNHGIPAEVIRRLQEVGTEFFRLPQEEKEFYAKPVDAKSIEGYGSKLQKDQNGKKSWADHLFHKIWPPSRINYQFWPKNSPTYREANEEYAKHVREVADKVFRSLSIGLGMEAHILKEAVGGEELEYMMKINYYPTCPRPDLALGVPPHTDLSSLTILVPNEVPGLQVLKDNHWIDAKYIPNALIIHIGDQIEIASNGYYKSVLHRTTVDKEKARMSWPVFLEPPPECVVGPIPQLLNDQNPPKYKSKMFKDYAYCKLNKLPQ

T2 sequence (W9RQ78 entry or part of it T117I): as the sequence (W9RQ78 entry or part of it T117S) above, with S117I counted along it
T1 sequence (W9RQ78 entry or part of it K202V): as the sequence (W9RQ78 entry or part of it T117S) above, with S117T, K202V counted along it
T3 sequence (W9RQ78 entry or part of it L224M): as the sequence (W9RQ78 entry or part of it T117S) above, with S117T, L224M counted along it

## O=C1c2c(O)cc(O)cc2O[C@H](c2ccc(O)cc2)[C@H]1O [dihydrokaempferol]
MnFLS [1]
  HPLC product assay, relative activity vs wild type: the mutant K202V suffered an almost complete loss of enzymatic function
MnFLS [2]
  HPLC product assay, relative activity vs wild type: replacing the Thr117 with Ile led to reduced activity
MnFLS [3]
  HPLC product assay, relative activity vs wild type: The variant L224M facilitated the conversion of dihydrokaempferol to kaempferol
MnFLS [4]
  HPLC product assay, relative activity vs wild type: T117S resulted in significant enhancement of activity for both naringenin and dihydrokaempferol as substrates

## O=C1C[C@@H](c2ccc(O)cc2)Oc2cc(O)cc(O)c21 [naringenin]
MnFLS [1]
  HPLC product assay, relative activity vs wild type: the mutant K202V suffered an almost complete loss of enzymatic function
MnFLS [2]
  HPLC product assay, relative activity vs wild type: replacing the Thr117 with Ile led to reduced activity
MnFLS [3]
  HPLC product assay, relative activity vs wild type: promoted an increased synthesis of dihydrokaempferol and kaempferol from naringenin
MnFLS [4]
  HPLC product assay, relative activity vs wild type: T117S resulted in significant enhancement of activity for both naringenin and dihydrokaempferol as substrates
